The values that follow come from PMC11550483 (2024).

One data set relates to SARS2 replication. As to conditions: read-out: EC50 against SARS2 replication; cited from earlier work.
The subject of the next data set is SARS2 M^pro. The following applies: cited from earlier work.
A further data set has as its target HCoV-NL63 M^pro (Human coronavirus NL63, UniProt P0C6X5). Type of data set: cell-based. The following applies: read-out: EC50 NL63 M^pro inhibition, cellular gain-of-signal.
Another data set relates to 293T cells. The following applies: up to the highest tested concentration (100 μM).

Like-named read-outs stand apart in the source and are kept apart here. Where a SMILES comes first, the peptide text is derived from it.

Sequence of HCoV-NL63 M^pro (P0C6X5 2940-3242): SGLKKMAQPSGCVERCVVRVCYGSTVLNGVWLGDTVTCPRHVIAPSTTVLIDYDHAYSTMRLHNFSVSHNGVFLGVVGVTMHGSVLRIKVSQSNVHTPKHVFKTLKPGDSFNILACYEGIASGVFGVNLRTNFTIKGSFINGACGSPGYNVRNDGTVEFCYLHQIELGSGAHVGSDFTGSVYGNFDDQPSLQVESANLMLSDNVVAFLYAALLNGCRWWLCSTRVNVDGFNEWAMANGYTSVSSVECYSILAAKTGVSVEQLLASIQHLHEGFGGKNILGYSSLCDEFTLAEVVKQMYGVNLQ

For orientation: EC50 means the concentration needed to bring the measured effect to its halfway point. In general, IC50 refers to the concentration needed to halve the response being measured. For the compound `O=C(NCc1cccs1)C1CN(C(=O)c2cccnc2)CCN1c1ccc(Cl)c(Cl)c1` (centres unmarked) [GC-14, reference compound], the EC50 with SARS2 replication was 1100 nM. Further, the IC50 in the data set with SARS2 M^pro (read-out: IC50 in a similar biochemical assay, ref [60]–[61]) is 400 nM.

Take `CC(C)C[C@H](NC(=O)OCc1ccccc1)C(=O)N[C@@H](CC1CCNC1=O)C(O)S(=O)(=O)O` (some centres unmarked) [GC376]: the EC50 at HCoV-NL63 M^pro amounted to 770 nM.

Turning to `CSCCC(C=O)NC(=O)C(CC(C)C)NC(=O)C(CC(C)C)NC(C)=O` (stereo not drawn) [MWAC-0001889, CSCCC(NC(=O)C(CC(C)C)NC(=O)C(CC(C)C)NC(=O)C)C=O] (Ac-Leu-Leu-Met-aldehyde; configuration not given here), the IC50 in the data set on SARS2 M^pro (read-out: IC50 SARS2 M^pro in a biochemical assay, ref [29],[32],[39],[58],[59]) was 970 nM. For the same compound, the “toxicity in 293T cells” value with 293T cells was “no toxicity”.
